Results taken from paper PMC10046037, “GABRG2 Variants Associated with Febrile Seizures” (Biomolecules, 2023).

Target: T1, α1β3γ2 GABAA receptor, γ2F464S variant (Homo sapiens, UniProt P14867+P18507+P28472, F464S)
T1 construct: expressed in transfected cells; host or cells: HEK293T
T1 sequence (P14867 28-456): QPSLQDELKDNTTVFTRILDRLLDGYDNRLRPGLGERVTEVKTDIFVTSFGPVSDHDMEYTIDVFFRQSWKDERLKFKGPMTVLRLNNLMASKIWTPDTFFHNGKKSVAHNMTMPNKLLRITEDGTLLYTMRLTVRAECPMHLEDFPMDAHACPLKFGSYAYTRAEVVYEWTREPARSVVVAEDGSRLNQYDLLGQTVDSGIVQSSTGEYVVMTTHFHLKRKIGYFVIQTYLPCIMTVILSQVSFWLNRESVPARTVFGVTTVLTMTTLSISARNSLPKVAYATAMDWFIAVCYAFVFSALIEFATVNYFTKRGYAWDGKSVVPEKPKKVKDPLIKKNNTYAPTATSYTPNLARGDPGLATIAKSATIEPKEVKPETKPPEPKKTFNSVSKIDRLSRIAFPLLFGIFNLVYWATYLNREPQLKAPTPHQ
T1 sequence (P28472 26-473 isoform P28472-2): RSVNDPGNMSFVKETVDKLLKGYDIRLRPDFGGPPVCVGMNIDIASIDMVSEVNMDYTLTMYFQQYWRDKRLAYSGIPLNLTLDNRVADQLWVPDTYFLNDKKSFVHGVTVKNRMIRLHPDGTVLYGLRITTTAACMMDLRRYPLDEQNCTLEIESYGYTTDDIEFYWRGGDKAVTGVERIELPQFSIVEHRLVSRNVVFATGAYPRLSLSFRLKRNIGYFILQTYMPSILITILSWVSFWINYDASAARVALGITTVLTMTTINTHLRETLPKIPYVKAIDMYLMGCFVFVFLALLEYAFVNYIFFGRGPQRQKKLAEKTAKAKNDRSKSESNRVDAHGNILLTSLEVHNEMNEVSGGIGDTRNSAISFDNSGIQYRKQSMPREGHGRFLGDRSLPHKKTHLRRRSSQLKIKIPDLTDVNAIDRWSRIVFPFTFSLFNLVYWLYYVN
T1 sequence (P18507 40-475 F464S): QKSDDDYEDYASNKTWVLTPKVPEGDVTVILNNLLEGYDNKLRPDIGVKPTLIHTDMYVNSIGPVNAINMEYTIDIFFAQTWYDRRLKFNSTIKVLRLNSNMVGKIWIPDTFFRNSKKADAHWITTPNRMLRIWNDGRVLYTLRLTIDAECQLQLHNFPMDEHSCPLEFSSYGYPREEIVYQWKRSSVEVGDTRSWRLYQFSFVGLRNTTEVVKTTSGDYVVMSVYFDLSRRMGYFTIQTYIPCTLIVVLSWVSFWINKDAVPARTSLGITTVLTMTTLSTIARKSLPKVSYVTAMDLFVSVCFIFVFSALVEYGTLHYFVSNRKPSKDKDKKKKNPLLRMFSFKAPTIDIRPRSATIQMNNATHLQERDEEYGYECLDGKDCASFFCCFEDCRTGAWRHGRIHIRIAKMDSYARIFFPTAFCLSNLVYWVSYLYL
Assay: Automated patch clamp of GABA-elicited currents (SyncroPatch 384PE), γ2F464S
Type: cell-based
Conditions: mean
Protocol: The coding sequences of human α1 (GABRA1, NM_000806), β3 (GABRB3, NM_021912), and γ2 (GABRG2, NM_198904.2) GABAAR subunits were subcloned into the pcDNA3.1 expression vectors (Invitrogen, Waltham, MA, USA).
HEK293T cells (ATCC, CRL-11268) were cultured at 37 °C in a humidified 5% CO2 incubator and maintained in Dulbecco’s modified Eagle’s medium (Invitrogen) supplemented with 10% fetal bovine serum (Life Technologies, Carlsbad, CA, USA), and 100 IU/mL of penicillin/streptomycin (Life Technologies). For the expression experiments, 4 × 10^5 cells were transfected using polyethylenimine (PEI) reagent (40 kD, Polysciences, Warrington, PA, USA) at a DNA: to transfection reagent ratio of 1:2.5 and harvested 36 h after transfection. To express WT and variant α1β3γ2 receptors, a total of 3 µg of α1, β3, and γ2 (WT or mutant) subunit cDNAs were transfected at a ratio of 1:1:1 into 60 mm culture dishes. For the mock-transfected condition, an empty pcDNA3.1 vector was added for a final cDNA transfection amount of 3 μg. For the electrophysiology experiments, 2.5 × 10^5 cells were plated in 100 mm culture dishes and transfected after 24 h with 3 μg of cDNA of each α1, β3, γ2 (wild-type or mutant) subunit, using X-tremeGENE HP DNA transfection Reagent (Roche Diagnostics, Basel, Switzerland), following the manufacturer’s protocol. Recordings were obtained forty-eight hours after transfection.
Whole-cell patch clamp recordings were conducted according to the manufacturer’s standard procedure for the SyncroPatch 384 [31]. Whole-cell voltage-clamp recordings were performed at room temperature on HEK293T cells 48 h after transfection with GABAAR subunits, using the SyncroPatch 384PE (Nanion Technologies, Munich, Germany). Cells, at a concentration of 400,000 cells/mL, were harvested in suspension in external solution containing 140 mM of NaCl, 2 mM of CaCl2, 4 mM of KCl, 1 mM of MgCl2, 5 mM of glucose, and 10 mM of HEPES (pH 7.4 with NaOH, 298 mOsm). The cells were loaded in a multi-hole (4 holes per well) 384-well Nanion patch clamp (NPC) chip with a thick borosilicate glass bottom and an average resistance pore size of […]. Built-in electrophysiological protocols were used, and the data were digitized using PatchControl 384 (Nanion Technologies) application. Using PatchControl 384, electrophysiological parameters, such as seal resistance, capacitance, and series resistance, were determined for each well after the application of a test pulse, and subsequently monitored over time. […] The currents were normalized to the maximal response of each well, and the concentration–response curves were calculated from single-point additions. The EC50 values for each variant or wild-type receptor were calculated across multiple wells for each experimental condition.

NCCCC(=O)O [GABA, γ-aminobutyric acid]
Deactivation (1 mM GABA for 5 ms, HEK293T, -80 mV): 332.6 ms | IMAX (maximal GABA-evoked peak current) (1 mM GABA for 5 ms, HEK293T): 0.96 nA | IMAX variant/IMAX WT (1 mM GABA): 47.93% | Rise Time (10–90% rise time, 1 mM GABA for 5 ms, HEK293T): 29.22 ms
